Test results: patent US9017963B2, “Method for detecting microorganisms” (Woundchek Laboratories (US), Inc., priority 2002, dated 2015)
*: point of attachment. Dabsyl = label, CN(C)c1ccc(/N=N/c2ccc(S(=O)(=O)*)cc2)cc1; EDANS = O=S(=O)(O)c1cccc2c(NCCN*)cccc12

Key:
[1] = system: S. epidermidis; experiment: Indolyl ester glass microfiber filter sensor, S. epidermidis; assay type: biochemical, Staphylococcus epidermidis; details: substrates bound to glass microfiber filter; FIG. 17B
Description: Hydrophobic interactions make use of the non-ionic packing that occurs in a polar solvent such as water and such interactions can be used in the production of biosensors for detection of pathogens. The substrates 5-bromo-4-chloro-3indolyl butyrate and 5-bromo-4-chloro-3indolyl caprylate can be spotted onto a glass microfiber filter to make a sensor. Upon spotting the filter with a small amount of Staphylococcus (aureus or epidermidis) culture medium the color of the filter will turn blue in approximately 15 minutes.

[2] = system: S. pyogenes; experiment: Indolyl ester glass microfiber filter sensor, S. pyogenes; assay type: biochemical, Streptococcus pyogenes; details: substrates bound to glass microfiber filter; FIG. 17B
[3] = system: lipase from S. aureus; experiment: Lipase assay, S. aureus culture supernatant; assay type: biochemical, Staphylococcus aureus; details: 20 mM Tris (pH 8.3) with 1 mM ZnSO4, 20% methanol, 20% DMSO, or 10 mM Triton X-100 vs control
Experimental: (§1) A culture of each of the following bacterial species was grown to saturation in Brain Heart Infusion (BHI) broth at 37° C. with vigorous shaking (˜200 rpm), using methods that are standard in the art: Staphylococcus aureus; Staphylococcus epidermidis; Serratia marcescens; Streptococcus salivarius; Escherichia coli; Pseudomonas aeruginosa; and Enterococcus faecalis. After overnight growth (to saturation), a 1 mL sample of each culture was obtained, and the cells were removed from the culture supernatant by centrifugation at 12,000×g for 5 minutes. The remaining culture supernatants were stored on ice until required (less than one hour). The bacteria were assayed for the presence or absence of specific enzymes as described below. Alternatively, the bacterial cells are not separated from the culture supernatant, but rather, the assay is carried out on a sample containing the cells still in suspension in their culture broth.
To test for the presence or absence of lipases secreted by bacteria, the lipase substrate p-nitrophenyl caprate, obtained from Sigma (Catalog No.: N-0252). This lipase substrate consists of capric acid, a ten-carbon lipid molecule, esterified with the dye para nitrophenol (detectable label) as described above. The substrate was dissolved in isopropyl alcohol at a concentration of 8 mM (2.35 mg/mL). A reaction buffer containing 20 mM Tris (pH 8.5) was also prepared.
To perform the lipase assay, 80 μL of reaction buffer, 10 μL of culture supernatant from each bacteria species described in Example 2, and 10 μL of assay substrate were added to a well of a 96-well microplate. Each bacterial species was assayed individually, and the assays were performed in triplicate. The 96-well plate was incubated at 37° C. for 60 minutes. At 5 minute intervals during the incubation period, absorbance at 415 nm, indicating modification of the enzyme by a lipase secreted by the cells, was automatically measured using a BioRad Benchmark Microplate reader.
However, it is known that bacterial lipases do show strong substrate specificity with regard to the chain length of the fatty acid they hydrolyze (Van Kampen et al., BBA, 1544: 229, 2001) and to the location in a lipid layer. The degree that the environment of the substrate affects the efficiency of hydrolysis depends on the particular enzyme. To test this for the lipase from S. aureus, the above-described lipase assay was performed in the presence of several detergent and solvent additives. The reaction buffer consisted of 20 mM Tris (pH 8.3) with 1 mM ZnSO4 added, plus either nothing additional (control), 20% methanol, 20% DMSO, or 10 mM Triton X-100.

[4] = system: Serratia marcescens specific protease; experiment: Serratia protease FRET assay, S. marcescens culture; assay type: biochemical
Description: A Serratia marcescens specific protease was identified based on a homology search using the sequence of a known sspB protease found in the Staphylococcus species. This protease has homology to the cysteine protease precursor (sspB) protein of Staphylococcus aureus. The corresponding Serratia protease has not been previously characterized. To test for the presence of the specific protease in a bacterial culture, a short target peptide was designed. This target peptide was derived from a polypeptide substrate previously shown to be cleaved by S. aureus sspB (Chan and Foster, J. Bacteriology 180:6232-6241, 1998). This peptide was capped by a fluorescent dye molecule on one end and by an associated chromophore molecule on the other end. If the absorption band of the chromophore has sufficient overlap with the absorbance band associated with the fluorescence of the dye molecule, the observed fluorescence will be quenched. This phenomenon is known as fluorescence resonance energy transfer (FRET) and can be used to determine the distance between the FRET donor and acceptor molecules. Upon cleavage of the peptide the fluorescent indicator is released from the proximity of the quencher and the fluorescence increase is measured. Thus, the presence or absence of a protease that targets the peptide in the sample can be determined by detecting fluorescence emitted by the cleaved peptide. […]

[5] = system: beta-galactosidase (Streptococcus salivarius); experiment: Beta-galactosidase assay, S. salivarius supernatant; assay type: biochemical; details: 37° C.
Experimental: as §1
(§2) To determine the presence or absence of bacteria in a sample, mid-log phase bacterial supernatants were obtained as described in Example 2. A substrate solution containing the labeled synthetic substrate ortho-nitrophenyl-b-D-galactopyranoside (ONPG) dissolved in 50% DMSO to a concentration of 20 mM was prepared. […] The samples were incubated at 37° C. and absorbance at 420 nm was measured hourly.

[6] = system: beta-galactosidase (other bacterial supernatants of Example 2); experiment: Beta-galactosidase assay, other species; assay type: biochemical; details: 37° C.
Experimental: as §1, §2

[7] = system: autolysins (Enterococcus faecalis); experiment: Autolysin assay, E. faecalis supernatant; assay type: biochemical; details: 20° C., 7 hours
Experimental: as §1, with “Alternatively, the bacterial cells are not separated from the culture supernatant, but rather, the assay is carried out on a sample containing the cells still in suspension in their culture broth.” left out
(§3) To test for the presence of autolysins in bacterial cell culture supernatants, the synthetic autolysin substrate p-nitrophenyl-N-acetyl-b-D-glucosaminide (PNP-AGA), a substrate containing a dye that is detected at […] when the substrate is modified, was dissolved in 50% DMSO to a final concentration of 20 mM to form a substrate solution. Modification of this substrate can be detected by measuring the change in absorbance at 405 nm. […] The progress of modification of the labeled substrate was monitored by absorbance at 405 nm.

[8] = system: other bacterial culture supernatants of Example 2; experiment: Autolysin assay, other culture supernatants; assay type: biochemical; details: other culture supernatants vs water control; 20° C., 7 hours
Experimental: as §1, with “Alternatively, the bacterial cells are not separated from the culture supernatant, but rather, the assay is carried out on a sample containing the cells still in suspension in their culture broth.” left out
as §3

[9] = system: Staphylococcus aureus, Listeria monocytogenes, Pseudomonas aeruginosa, Enterococcus faecalis, Streptococcus salivarius, Escherichia coli cultures; experiment: Serratia protease FRET assay, other bacterial pathogen samples; assay type: biochemical; details: other bacterial samples vs water control; same conditions
Experimental: The specificity of the protease for Serratia marcescens is was determined by detecting cleavage of a target polypeptide, using FRET, by the protease in a number of different bacterial pathogen samples. The bacterial pathogen samples used in this study were all taken from overnight cultures grown in brain heart […] (BHI) media at 37° C., as described herein. The bacterial pathogens chosen for this study were: Staphylococcus aureus, Listeria monocytogenes, Pseudomonas aeruginosa, Enterococcus faecalis, Streptococcus salivarius, Serratia marcescens, and Escherichia coli. The target peptide substrate used to test for the Serratia marcescens specific protease was as follows: Dabsyl-NEAIQEDQVQYE-Edans (SEQ ID NO: 2), and was prepared using standard methods known to one skilled in the art. A substrate solution containing 1 mg/mL to 5 mg/mL of target peptide substrate in 1:1 water/dimethylsulfoxide (DMSO) was prepared. The reaction buffer used was 20 mM Tris (pH 7.5) with 200 mM NaCl. […] The narrow band filters in the fluorimeter were centered at 305 nm for excitation and 485 nm for fluorescence emission readings. The samples were incubated at 37° C. and the fluorescence of each sample was measured at time points taken every 10 minutes. […]

[10] = system: Serratia marcescens specific protease; experiment: Biosensor: target peptide bound to Cell Debris Remover, exposed to Serratia marcescens extract; assay type: biochemical
Description: An example of a biosensor for the detection of a Serratia marcescens (S. marcescens) specific protease, and therefore, for the detection of Serratia marcescens now follows. The Serratia marcescens specific target peptide substrate was bound to a surface with a weak positive charge, such as fibrous cellulose lightly substituted with DEAE (Cell Debris Remover, Whatman, Inc.).

CCCC(=O)Oc1c[nH]c2ccc(Br)c(Cl)c12 [5-bromo-4-chloro-3indolyl butyrate]
detection on filter sensor (dark spot) [1]: dark spot corresponding to S. epidermidis indicates detection | detection on filter sensor [2]: did not detect S. pyogenes

CCCCCCCC(=O)Oc1c[nH]c2ccc(Br)c(Cl)c12 [5-bromo-4-chloro-3indolyl caprylate]
detection on filter sensor (dark spot) [1]: dark spot corresponding to S. epidermidis indicates detection | detection on filter sensor [2]: did not detect S. pyogenes

C[S+](C)[O-] [DMSO]
effect of additive on hydrolysis rate of p-nitrophenyl caprate [3]: hydrolysis rate was found to increase

O=C(O)CN(CCN(CC(=O)O)CC(=O)O)CC(=O)O [EDTA, ethylenediaminetetraacetic acid]
effect of EDTA on protease activity (relative fluorescence of the target peptide) ([4]; One mM EDTA added to 20 mM Tris (pH 7.5) with 200 mM NaCl, Serratia culture): No reduction in activity

O=[N+]([O-])c1ccccc1O[C@@H]1O[C@H](CO)[C@H](O)[C@H](O)[C@H]1O [ONPG, ortho-nitrophenyl-b-D-galactopyranoside]
reaction with substrate (absorbance at 420 nm) [5]: reacted with the substrate | reaction with substrate (absorbance at 420 nm) [6]: other species did not

CC(=O)N[C@H]1[C@H](Oc2ccc([N+](=O)[O-])cc2)O[C@H](CO)[C@@H](O)[C@@H]1O [PNP-AGA, p-nitrophenyl-N-acetyl-b-D-glucosaminide]
modification of substrate (change in absorbance at 405 nm) [7]: reacted with the substrate, giving rise to a color change | modification of substrate (change in absorbance at 405 nm) [8]: None of the other culture supernatants were distinguishable from the water control

CO [methanol]
effect of additive on hydrolysis rate of p-nitrophenyl caprate [3]: hydrolysis rate was found to increase

Dabsyl-NEAIQEDQVQYE-Edans (Dabsyl-NEAIQEDQVQYE-{EDANS}; SMILES CC[C@H](C)[C@H](NC(=O)[C@H](C)NC(=O)[C@H](CCC(=O)O)NC(=O)[C@H](CC(N)=O)NS(=O)(=O)c1ccc(/N=N/c2ccc(N(C)C)cc2)cc1)C(=O)N[C@@H](CCC(N)=O)C(=O)N[C@@H](CCC(=O)O)C(=O)N[C@@H](CC(=O)O)C(=O)N[C@@H](CCC(N)=O)C(=O)N[C@H](C(=O)N[C@@H](CCC(N)=O)C(=O)N[C@@H](Cc1ccc(O)cc1)C(=O)N[C@@H](CCC(=O)O)C(=O)NCCNc1cccc2c(S(=O)(=O)O)cccc12)C(C)C) [target peptide substrate used to test for the Serratia marcescens specific protease]
cleavage of target peptide substrate (relative fluorescence intensity over time) [9]: None of the other bacterial samples, including the Staphylococcus aureus sample, were distinguishable from the control | cleavage of target peptide substrate (relative fluorescence intensity over time) ([4]; S. marcescens overnight culture in BHI, 20 mM Tris (pH 7.5) with 200 mM NaCl, 37° C., emission 485 nm): reacted with the substrate, giving rise to an increase in fluorescence intensity | fluorescence of biosensor [10]: fluorescence was readily detected

Triton X-100
effect of additive on hydrolysis rate of p-nitrophenyl caprate [3]: hydrolysis rate was found to increase
